Test results: patent US10765114B2, “4-amino-6-(pyridyl and 2-substitutedphenyl)-picolinates and 6-amino-2-(pyridyl and 2-substitutedphenyl)-pyrimidine-4-carboxylates and their use as herbicides” (Dow AgroSciences LLC, priority 2013, dated 2020)

tested on: Key Broadleaf Weed and Crop Species; test: Post-Emergent Test II (Table 5); assay type: in vivo; conditions: Abutilon theophrasti, post-emergence, 336 h, ABUTH: velvetleaf (Abutilon theophrasti), application rate 70 (kg ai/ha; footnote: g ai/ha), read-out: Visual Growth Reduction (%) 14 Days After Application ABUTH
Method in brief: (§1)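 Plants at first or second true-leaf stage, grown 7-21 days in greenhouse, were sprayed post-emergence at 187 L/ha with compounds in acetone/DMSO/water/crop oil/surfactant mixture at the high rate and ½× to 1/16× dilutions. Injury scored visually after 14 days, 0 (none) to 100% (complete kill), versus untreated plants.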

Structure (SMILES) | pest or weed control at 70 g/ha [%]
COC(=O)c1nc(-c2ccc(C(F)(F)F)nc2F)cc(N)c1Cl [Compound 74] | 85 to 94

same assay, conditions: Abutilon theophrasti, post-emergence, 336 h, ABUTH: velvetleaf (Abutilon theophrasti), application rate 140 (kg ai/ha; footnote: g ai/ha), read-out: Visual Growth Reduction (%) 14 Days After Application ABUTH

Structure (SMILES) | pest or weed control at 140 g/ha [%]
COC(=O)c1nc(-c2ccc(C(F)(F)F)nc2F)cc(N)c1Cl [Compound 74] | 95 to 100

same assay, conditions: Brassica napus, post-emergence, 336 h, BRSSS: oilseed rape, canola (Brassica napus), application rate 70 (kg ai/ha; footnote: g ai/ha), read-out: Visual Growth Reduction (%) 14 Days After Application BRSSS

Structure (SMILES) | pest or weed control at 70 g/ha [%]
COC(=O)c1nc(-c2ccc(C(F)(F)F)nc2F)cc(N)c1Cl [Compound 74] | 30 to 44

same assay, conditions: Brassica napus, post-emergence, 336 h, BRSSS: oilseed rape, canola (Brassica napus), application rate 140 (kg ai/ha; footnote: g ai/ha), read-out: Visual Growth Reduction (%) 14 Days After Application BRSSS

Structure (SMILES) | pest or weed control at 140 g/ha [%]
COC(=O)c1nc(-c2ccc(C(F)(F)F)nc2F)cc(N)c1Cl [Compound 74] | 45 to 59

same assay, conditions: Chenopodium album, post-emergence, 336 h, CHEAL: lambsquarters (Chenopodium album), application rate 70 (kg ai/ha; footnote: g ai/ha), read-out: Visual Growth Reduction (%) 14 Days After Application CHEAL

Structure (SMILES) | pest or weed control at 70 g/ha [%]
COC(=O)c1nc(-c2ccc(C(F)(F)F)nc2F)cc(N)c1Cl [Compound 74] | 75 to 84

same assay, conditions: Chenopodium album, post-emergence, 336 h, CHEAL: lambsquarters (Chenopodium album), application rate 140 (kg ai/ha; footnote: g ai/ha), read-out: Visual Growth Reduction (%) 14 Days After Application CHEAL

Structure (SMILES) | pest or weed control at 140 g/ha [%]
COC(=O)c1nc(-c2ccc(C(F)(F)F)nc2F)cc(N)c1Cl [Compound 74] | 85 to 94

same assay, conditions: Euphorbia heterophylla, post-emergence, 336 h, EPHHL: wild poinsettia (Euphorbia heterophylla), application rate 70 (kg ai/ha; footnote: g ai/ha), read-out: Visual Growth Reduction (%) 14 Days After Application EPHHL

Structure (SMILES) | pest or weed control at 70 g/ha [%]
COC(=O)c1nc(-c2ccc(C(F)(F)F)nc2F)cc(N)c1Cl [Compound 74] | 0 to 29

same assay, conditions: Euphorbia heterophylla, post-emergence, 336 h, EPHHL: wild poinsettia (Euphorbia heterophylla), application rate 140 (kg ai/ha; footnote: g ai/ha), read-out: Visual Growth Reduction (%) 14 Days After Application EPHHL

Structure (SMILES) | pest or weed control at 140 g/ha [%]
COC(=O)c1nc(-c2ccc(C(F)(F)F)nc2F)cc(N)c1Cl [Compound 74] | 0 to 29

same assay, conditions: Helianthus annuus, post-emergence, 336 h, HELAN: sunflower (Helianthus annuus), application rate 70 (kg ai/ha; footnote: g ai/ha), read-out: Visual Growth Reduction (%) 14 Days After Application HELAN

Structure (SMILES) | pest or weed control at 70 g/ha [%]
COC(=O)c1nc(-c2ccc(C(F)(F)F)nc2F)cc(N)c1Cl [Compound 74] | 45 to 59

same assay, conditions: Helianthus annuus, post-emergence, 336 h, HELAN: sunflower (Helianthus annuus), application rate 140 (kg ai/ha; footnote: g ai/ha), read-out: Visual Growth Reduction (%) 14 Days After Application HELAN

Structure (SMILES) | pest or weed control at 140 g/ha [%]
COC(=O)c1nc(-c2ccc(C(F)(F)F)nc2F)cc(N)c1Cl [Compound 74] | 60 to 74

same assay, conditions: Viola tricolor, post-emergence, 336 h, VIOTR: wild pansy (Viola tricolor), application rate 70 (kg ai/ha; footnote: g ai/ha), read-out: Visual Growth Reduction (%) 14 Days After Application VIOTR

Structure (SMILES) | pest or weed control at 70 g/ha [%]
COC(=O)c1nc(-c2ccc(C(F)(F)F)nc2F)cc(N)c1Cl [Compound 74] | 0 to 29

same assay, conditions: Viola tricolor, post-emergence, 336 h, VIOTR: wild pansy (Viola tricolor), application rate 140 (kg ai/ha; footnote: g ai/ha), read-out: Visual Growth Reduction (%) 14 Days After Application VIOTR

Structure (SMILES) | pest or weed control at 140 g/ha [%]
COC(=O)c1nc(-c2ccc(C(F)(F)F)nc2F)cc(N)c1Cl [Compound 74] | 0 to 29

tested on: Key Grass and Sedge Weeds as well as Grass Crops; test: Post-Emergent Test II (Table 6); assay type: in vivo; conditions: post-emergence, 336 h, CYPSS, 70 g ai/ha, 14 days after application, read-out: Visual Growth Reduction (%) 14 Days After Application CYPSS
Method in brief: as §1

Structure (SMILES) | pest or weed control at 70 g/ha [%]
COC(=O)c1nc(-c2ccc(C(F)(F)F)nc2F)cc(N)c1Cl [Compound 74] | 0 to 29

same assay, conditions: post-emergence, 336 h, CYPSS, 140 g ai/ha, 14 days after application, read-out: Visual Growth Reduction (%) 14 Days After Application CYPSS

Structure (SMILES) | pest or weed control at 140 g/ha [%]
COC(=O)c1nc(-c2ccc(C(F)(F)F)nc2F)cc(N)c1Cl [Compound 74] | 0 to 29

same assay, conditions: post-emergence, 336 h, DIGSA: crabgrass (Digitaria sanguinalis), 70 g ai/ha, 14 days after application, read-out: Visual Growth Reduction (%) 14 Days After Application DIGSA

Structure (SMILES) | pest or weed control at 70 g/ha [%]
COC(=O)c1nc(-c2ccc(C(F)(F)F)nc2F)cc(N)c1Cl [Compound 74] | 0 to 29

same assay, conditions: post-emergence, 336 h, DIGSA: crabgrass (Digitaria sanguinalis), 140 g ai/ha, 14 days after application, read-out: Visual Growth Reduction (%) 14 Days After Application DIGSA

Structure (SMILES) | pest or weed control at 140 g/ha [%]
COC(=O)c1nc(-c2ccc(C(F)(F)F)nc2F)cc(N)c1Cl [Compound 74] | 0 to 29

same assay, conditions: post-emergence, 336 h, ECHSS, 70 g ai/ha, 14 days after application, read-out: Visual Growth Reduction (%) 14 Days After Application ECHSS

Structure (SMILES) | pest or weed control at 70 g/ha [%]
COC(=O)c1nc(-c2ccc(C(F)(F)F)nc2F)cc(N)c1Cl [Compound 74] | 0 to 29

same assay, conditions: post-emergence, 336 h, ECHSS, 140 g ai/ha, 14 days after application, read-out: Visual Growth Reduction (%) 14 Days After Application ECHSS

Structure (SMILES) | pest or weed control at 140 g/ha [%]
COC(=O)c1nc(-c2ccc(C(F)(F)F)nc2F)cc(N)c1Cl [Compound 74] | 45 to 59

same assay, conditions: post-emergence, 336 h, ORYSS (crop), 70 g ai/ha, 14 days after application, read-out: Visual Growth Reduction (%) 14 Days After Application ORYSS

Structure (SMILES) | pest or weed control at 70 g/ha [%]
COC(=O)c1nc(-c2ccc(C(F)(F)F)nc2F)cc(N)c1Cl [Compound 74] | 0 to 29

same assay, conditions: post-emergence, 336 h, ORYSS (crop), 140 g ai/ha, 14 days after application, read-out: Visual Growth Reduction (%) 14 Days After Application ORYSS

Structure (SMILES) | pest or weed control at 140 g/ha [%]
COC(=O)c1nc(-c2ccc(C(F)(F)F)nc2F)cc(N)c1Cl [Compound 74] | 0 to 29

same assay, conditions: post-emergence, 336 h, SETFA: giant foxtail (Setaria faberi), 70 g ai/ha, 14 days after application, read-out: Visual Growth Reduction (%) 14 Days After Application SETFA

Structure (SMILES) | pest or weed control at 70 g/ha [%]
COC(=O)c1nc(-c2ccc(C(F)(F)F)nc2F)cc(N)c1Cl [Compound 74] | 0 to 29

same assay, conditions: post-emergence, 336 h, SETFA: giant foxtail (Setaria faberi), 140 g ai/ha, 14 days after application, read-out: Visual Growth Reduction (%) 14 Days After Application SETFA

Structure (SMILES) | pest or weed control at 140 g/ha [%]
COC(=O)c1nc(-c2ccc(C(F)(F)F)nc2F)cc(N)c1Cl [Compound 74] | 0 to 29

same assay, conditions: post-emergence, 336 h, SORVU: grain sorghum (Sorghum vulgare), 70 g ai/ha, 14 days after application, read-out: Visual Growth Reduction (%) 14 Days After Application SORVU

Structure (SMILES) | pest or weed control at 70 g/ha [%]
COC(=O)c1nc(-c2ccc(C(F)(F)F)nc2F)cc(N)c1Cl [Compound 74] | 0 to 29

same assay, conditions: post-emergence, 336 h, SORVU: grain sorghum (Sorghum vulgare), 140 g ai/ha, 14 days after application, read-out: Visual Growth Reduction (%) 14 Days After Application SORVU

Structure (SMILES) | pest or weed control at 140 g/ha [%]
COC(=O)c1nc(-c2ccc(C(F)(F)F)nc2F)cc(N)c1Cl [Compound 74] | 45 to 59

same assay, conditions: post-emergence, 336 h, TRZSS (crop), 70 g ai/ha, 14 days after application, read-out: Visual Growth Reduction (%) 14 Days After Application TRZSS

Structure (SMILES) | pest or weed control at 70 g/ha [%]
COC(=O)c1nc(-c2ccc(C(F)(F)F)nc2F)cc(N)c1Cl [Compound 74] | 0 to 29

same assay, conditions: post-emergence, 336 h, TRZSS (crop), 140 g ai/ha, 14 days after application, read-out: Visual Growth Reduction (%) 14 Days After Application TRZSS

Structure (SMILES) | pest or weed control at 140 g/ha [%]
COC(=O)c1nc(-c2ccc(C(F)(F)F)nc2F)cc(N)c1Cl [Compound 74] | 0 to 29

same assay, conditions: post-emergence, 336 h, ZEAMX: maize, corn (Zea mays), 70 g ai/ha, 14 days after application, read-out: Visual Growth Reduction (%) 14 Days After Application ZEAMX

Structure (SMILES) | pest or weed control at 70 g/ha [%]
COC(=O)c1nc(-c2ccc(C(F)(F)F)nc2F)cc(N)c1Cl [Compound 74] | 0 to 29

same assay, conditions: post-emergence, 336 h, ZEAMX: maize, corn (Zea mays), 140 g ai/ha, 14 days after application, read-out: Visual Growth Reduction (%) 14 Days After Application ZEAMX

Structure (SMILES) | pest or weed control at 140 g/ha [%]
COC(=O)c1nc(-c2ccc(C(F)(F)F)nc2F)cc(N)c1Cl [Compound 74] | 30 to 44

tested on: not given; test: not given; conditions: not given

melting point [°C] | Structure (SMILES)
138 to 141 | COC(=O)c1nc(-c2ccc(C(F)(F)F)nc2F)cc(N)c1Cl [Compound 74]
